Consider three compounds from patent US20020071842A1, “Soluble CD1 compositions and uses thereof” (priority 2000, published 2002).

The subject of the assay is human CD1d-restricted T cell clones. The experiment in a line: Flow cytometric staining with lipid treated multimerized CD1d-Fc aggregates. The settings on record: flow cytometry, human CD1d-Fc/Alexa 488 protein A aggregate, 40:1 lipid to fusion protein, compared with DMSO alone. The assay is classed as cell-based. The method, then:
To facilitate binding to CD1 specific T cells for detection by flow cytometry, a highly multimerized form of the CD1d fusion protein was formed using fluorescently labeled protein A molecules. Protein A molecules spontaneously associate in solution at neutral pH with immunoglobulin Fc regions, forming complexes containing four Fc molecules and two protein A molecules (4+2 complexes, reference 2). The human CD1d-Fc fusion protein was incubated with Alexa 488 dye labeled protein A, and the 4+2 complexes purified by size exclusion chromatography on a Pharmacia Superose 6 column using PBS pH 7.2 as a running buffer. The purified 4+2 aggregates were concentrated to 100 μg/ml with ovalbumin as a carrier protein. The CD1d-Fc aggregate was then pre-incubated for 24 to 48 hours at 37° C. with antigenic glycolipids dissolved in DMSO at a 40:1 molar ratio of lipid to fusion protein, or with an equivalent volume of DMSO alone as a negative control. The T cell staining was performed at room temperature or 4° C. for 20 min, at a concentration of 40 μg/ml of the lipid or control treated CD1d-Fc aggregate.
To facilitate binding to CD1 specific T cells for detection by flow cytometry, a highly multimerized form of the CD1d fusion protein is formed using fluorescently labeled protein A molecules. Protein A molecules spontaneously associate in solution at neutral pH with immunoglobulin Fc regions, forming complexes containing four Fc molecules and two protein A molecules (4+2 complexes, Langone, J.J. et al, Molec. and Cell. Biochem, 65(2):159-70 (1985)). The human CD1d-Fc fusion protein was incubated with Alexa 488-dye labeled protein A, and the 4+2 complexes purified by size exclusion chromatography on a Phannacia Superose 6 column using PBS pH 7.2 as a running buffer. The purified 4+2 aggregates are concentrated to 100 μg/ml with ovalbumin as a carrier protein. The CD1d-Fc aggregate is then pre-incubated for 24 to 48 hours at 37° C. with antigenic glycolipids dissolved in DMSO at a 40:1 molar ratio of lipid to fusion protein, or with an equivalent volume of DMSO alone as a negative control. The T cell staining is performed at room temperature or 4° C. for 20 min, at a concentration of 40 μg/ml of the lipid or control treated CD1d-Fc aggregate.
Flow cytometric analysis of a CD1d-restricted T cell clone stained with the multimerized CD1d-Fc fusion protein (abbreviated as “hd(8)-fl”) was performed as follows. Staining with CD1d-Fc treated with lipid antigens dissolved in DMSO was compared with CD1d-Fc treated with DMSO alone as a negative control. The specific lipid antigen used were: aGalCer is α-galactosyl ceramide (KRN7000); aGlcCer is α-glucosyl ceramide; aManCer is α-mannosyl ceramide; bGalCer is β-galactosyl ceramide; Cer is ceramide (acylphytosphingolipid).
Flow cytometric analysis of a series of human T cell clones stained with the multimerized CD1d-Fc fusion protein, treated with α-GalCer or DMSO alone also was performed, including staining of two different CD1d-restricted (“NKT”) T cell clones DN2.B9 and DN1.10B3. Four other T cell clones that are not CD1d-restricted also were stained.
A general note: Flow cytometry measures light scatter and fluorescence of single cells or particles in a stream.

Regarding `CCCCCCCCCCCCCCCCCCCCCCCCCC(=O)N[C@@H](CO[C@H]1O[C@H](CO)[C@H](O)[C@H](O)[C@H]1O)[C@H](O)[C@H](O)CCCCCCCCCCCCCC` [α-GalCer, α-galactosylceramide], the “staining of CD1d-restricted T cell clones by lipid treated CD1d-Fc aggregate” value (from here on “staining”) (listed as aGalCer) is reported as “positive staining”. For the compound unglycosylated ceramide, the “staining” value was “did not stain above background levels”. Regarding β-galactosylceramide [β-GalCer], the “staining” value is given as “did not stain above background levels”.
